Legend:
JAK1 = JAK1 (Homo sapiens (Human), UniProt P23458); assay: Biochemical JAK kinase assay (LanthaScreen), JAK1; conditions: for Ki: read-out: JAK1 pKi (converted)
Outline: (§1)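 LanthaScreen format: phospho-STAT1 (pTyr701) detected with 2 nM Tb antibody after 10 mM EDTA quench. Kinase step used Km-level ATP and 200 nM STAT1 peptide, 1 h at ambient after 1 h pre-incubation. Inhibition fitted to IC50, reported as pKi.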

JAK2 = JAK2 (Homo sapiens (Human), UniProt O60674); assay: Biochemical JAK kinase assay (LanthaScreen), JAK2; conditions: for Ki: read-out: JAK2 pKi (converted)
Sequence of JAK2 (O60674 whole entry): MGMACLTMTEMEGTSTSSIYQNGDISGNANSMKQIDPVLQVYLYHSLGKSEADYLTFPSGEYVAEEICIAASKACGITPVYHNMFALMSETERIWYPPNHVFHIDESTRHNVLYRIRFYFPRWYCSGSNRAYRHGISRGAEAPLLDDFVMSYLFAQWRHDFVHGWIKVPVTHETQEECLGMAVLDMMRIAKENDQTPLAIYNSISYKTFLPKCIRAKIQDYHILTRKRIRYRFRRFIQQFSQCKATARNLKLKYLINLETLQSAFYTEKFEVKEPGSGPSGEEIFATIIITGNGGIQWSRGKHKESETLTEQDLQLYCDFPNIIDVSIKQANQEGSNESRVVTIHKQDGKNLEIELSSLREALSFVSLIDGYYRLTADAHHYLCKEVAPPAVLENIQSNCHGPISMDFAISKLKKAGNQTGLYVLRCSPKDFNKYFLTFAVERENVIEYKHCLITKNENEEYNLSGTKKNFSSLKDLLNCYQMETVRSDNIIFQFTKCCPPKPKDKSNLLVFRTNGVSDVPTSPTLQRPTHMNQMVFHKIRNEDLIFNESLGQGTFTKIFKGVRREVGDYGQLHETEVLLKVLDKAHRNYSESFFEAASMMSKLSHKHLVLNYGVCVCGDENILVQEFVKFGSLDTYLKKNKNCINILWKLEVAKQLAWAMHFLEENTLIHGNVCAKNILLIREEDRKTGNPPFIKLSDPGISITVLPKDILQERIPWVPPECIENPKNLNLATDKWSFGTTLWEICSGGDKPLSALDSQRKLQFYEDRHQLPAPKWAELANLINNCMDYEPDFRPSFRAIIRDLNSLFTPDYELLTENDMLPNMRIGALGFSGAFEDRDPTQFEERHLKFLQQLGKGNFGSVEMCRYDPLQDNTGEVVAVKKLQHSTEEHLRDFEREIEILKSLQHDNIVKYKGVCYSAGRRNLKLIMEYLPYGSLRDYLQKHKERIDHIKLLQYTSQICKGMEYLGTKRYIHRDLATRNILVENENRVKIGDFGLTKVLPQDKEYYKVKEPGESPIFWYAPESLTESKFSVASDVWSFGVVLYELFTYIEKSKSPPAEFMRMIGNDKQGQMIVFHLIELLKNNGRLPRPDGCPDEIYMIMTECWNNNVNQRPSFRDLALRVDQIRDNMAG
Outline: as §1

JAK3 = JAK3 (Homo sapiens (Human), UniProt P52333); assay: Biochemical JAK kinase assay (LanthaScreen), JAK3; conditions: read-out: JAK3 pKi (converted)
Sequence of JAK3 (P52333 whole entry): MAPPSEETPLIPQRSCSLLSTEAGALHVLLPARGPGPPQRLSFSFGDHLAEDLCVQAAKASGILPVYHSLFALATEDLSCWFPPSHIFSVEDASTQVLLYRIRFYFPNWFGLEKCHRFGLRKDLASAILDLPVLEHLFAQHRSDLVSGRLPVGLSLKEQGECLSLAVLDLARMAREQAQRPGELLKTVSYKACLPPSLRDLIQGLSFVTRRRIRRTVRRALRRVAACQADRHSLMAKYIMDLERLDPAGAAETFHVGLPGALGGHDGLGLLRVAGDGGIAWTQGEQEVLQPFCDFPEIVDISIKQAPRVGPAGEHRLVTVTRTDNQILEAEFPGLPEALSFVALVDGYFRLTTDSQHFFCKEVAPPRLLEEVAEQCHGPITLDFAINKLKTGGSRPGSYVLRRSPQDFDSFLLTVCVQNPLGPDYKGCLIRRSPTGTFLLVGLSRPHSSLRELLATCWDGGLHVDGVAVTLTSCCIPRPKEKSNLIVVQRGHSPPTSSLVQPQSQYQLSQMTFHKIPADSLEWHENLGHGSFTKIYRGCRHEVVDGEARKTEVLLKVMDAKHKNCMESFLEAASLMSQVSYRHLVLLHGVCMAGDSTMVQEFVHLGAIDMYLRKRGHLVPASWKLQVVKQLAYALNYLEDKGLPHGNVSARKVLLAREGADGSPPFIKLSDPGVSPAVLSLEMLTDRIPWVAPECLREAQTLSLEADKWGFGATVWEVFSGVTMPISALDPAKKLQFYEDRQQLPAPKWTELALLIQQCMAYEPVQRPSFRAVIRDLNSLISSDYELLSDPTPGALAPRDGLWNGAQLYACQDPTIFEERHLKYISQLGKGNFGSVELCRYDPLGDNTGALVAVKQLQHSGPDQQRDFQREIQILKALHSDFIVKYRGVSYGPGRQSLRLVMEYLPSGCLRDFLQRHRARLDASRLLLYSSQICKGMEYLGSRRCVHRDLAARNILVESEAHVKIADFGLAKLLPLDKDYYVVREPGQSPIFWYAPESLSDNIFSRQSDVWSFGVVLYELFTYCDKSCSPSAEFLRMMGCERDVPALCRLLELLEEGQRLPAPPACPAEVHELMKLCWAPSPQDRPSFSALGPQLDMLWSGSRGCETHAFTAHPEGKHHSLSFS
Procedure: A panel of four LanthaScreen JAK biochemical assays (JAK1, 2, 3 and Tyk2) were carried in a common kinase reaction buffer (50 mM HEPES, pH 7.5, 0.01% Brij-35, 10 mM MgCl2, and 1 mM EGTA). Recombinant GST-tagged JAK enzymes and a GFP-tagged STAT1 peptide substrate were obtained from Life Technologies.
Serially diluted compounds were pre-incubated with each of the four JAK enzymes and the substrate in white 384-well microplates (Corning) at ambient temperature for 1 h. ATP was subsequently added to initiate the kinase reactions in 10 μL total volume, with 1% DMSO. The final enzyme concentrations for JAK1, 2, 3 and Tyk2 are 4.2 nM, 0.1 nM, 1 nM, and 0.25 nM respectively; the corresponding Km ATP concentrations used are 25 μM, 3 μM, 1.6 μM, and 10 μM; while the substrate concentration is 200 nM for all four assays. Kinase reactions were allowed to proceed for 1 hour at ambient temperature before a 10 μL preparation of EDTA (10 mM final concentration) and Tb-anti-pSTAT1 (pTyr701) antibody (Life Technologies, 2 nM final concentration) in TR-FRET dilution buffer (Life Technologies) was added. The plates were allowed to incubate at ambient temperature for 1 h before being read on the EnVision reader (Perkin Elmer). Emission ratio signals (520 nm/495 nm) were recorded and utilized to calculate the percent inhibition values based on DMSO and background controls.
For dose-response analysis, percent inhibition data were plotted vs. compound concentrations, and IC50 values were determined from a 4-parameter robust fit model with the Prism software (GraphPad Software). Results were expressed as pIC50 (negative logarithm of IC50) and subsequently converted to pKi (negative logarithm of dissociation constant, Ki) using the Cheng-Prusoff equation.
Test compounds having a lower Ki value or higher pKi value in the four JAK assays show greater inhibition of JAK activity.

TYK2 = TYK2 (Homo sapiens (Human), UniProt P29597); assay: Biochemical JAK kinase assay (LanthaScreen), Tyk2; conditions: read-out: Tyk2 pKi (converted)
Sequence of TYK2 (P29597 whole entry): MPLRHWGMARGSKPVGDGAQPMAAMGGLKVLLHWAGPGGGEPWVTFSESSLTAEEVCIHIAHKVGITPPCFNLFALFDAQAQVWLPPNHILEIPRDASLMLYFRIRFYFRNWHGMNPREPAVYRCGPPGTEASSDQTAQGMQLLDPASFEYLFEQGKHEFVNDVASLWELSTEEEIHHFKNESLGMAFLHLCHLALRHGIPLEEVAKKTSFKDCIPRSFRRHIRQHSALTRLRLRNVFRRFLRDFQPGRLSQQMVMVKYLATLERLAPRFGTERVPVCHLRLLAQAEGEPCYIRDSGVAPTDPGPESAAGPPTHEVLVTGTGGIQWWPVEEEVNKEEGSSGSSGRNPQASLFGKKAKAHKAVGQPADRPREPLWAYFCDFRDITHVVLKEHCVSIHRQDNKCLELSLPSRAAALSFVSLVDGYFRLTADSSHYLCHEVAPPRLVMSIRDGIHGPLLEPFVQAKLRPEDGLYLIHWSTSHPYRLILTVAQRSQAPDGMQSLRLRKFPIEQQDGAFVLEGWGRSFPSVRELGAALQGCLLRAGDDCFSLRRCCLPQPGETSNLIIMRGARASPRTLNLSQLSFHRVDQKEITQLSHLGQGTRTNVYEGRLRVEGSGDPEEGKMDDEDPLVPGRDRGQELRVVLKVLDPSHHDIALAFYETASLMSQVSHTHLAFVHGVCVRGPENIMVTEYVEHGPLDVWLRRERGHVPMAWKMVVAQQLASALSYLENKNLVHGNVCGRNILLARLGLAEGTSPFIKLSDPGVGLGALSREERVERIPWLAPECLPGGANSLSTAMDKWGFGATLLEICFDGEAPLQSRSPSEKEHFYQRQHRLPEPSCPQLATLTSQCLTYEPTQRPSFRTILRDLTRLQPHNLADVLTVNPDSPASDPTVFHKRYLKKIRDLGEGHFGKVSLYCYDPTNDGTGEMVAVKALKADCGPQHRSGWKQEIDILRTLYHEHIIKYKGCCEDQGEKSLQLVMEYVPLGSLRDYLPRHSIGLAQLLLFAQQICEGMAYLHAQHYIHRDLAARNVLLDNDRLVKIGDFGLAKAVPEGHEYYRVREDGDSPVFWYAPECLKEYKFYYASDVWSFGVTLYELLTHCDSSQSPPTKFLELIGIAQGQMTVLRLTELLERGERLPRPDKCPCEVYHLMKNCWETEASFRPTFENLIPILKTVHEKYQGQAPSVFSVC
Outline: as §1

[1] = tested on: IL-13 induced STAT6 phosphorylation in BEAS-2B human lung epithelial cells; assay: Cellular JAKI potency assay (BEAS-2B); type: cell-based; conditions: BEAS-2B cells; for IC50: Homo sapiens, BEAS-2B, read-out: BEAS2B pIC50 (converted)
Outline: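 BEAS-2B cells were preincubated with compound (0.1% DMSO) in HBSS/HEPES/BSA for 1 h at 37 °C, then stimulated with IL-13 (80 ng/mL before addition) for 30 min. After lysis, pSTAT6 (Tyr641) was quantified by AlphaLISA SureFire; IC50 from a 4-parameter fit of percent inhibition, reported as pIC50.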

[2] = Pharmacokinetics in plasma and lung in mouse after oral aspiration administration; type: in vivo; conditions: male CD1 mice; for Lung Tissue AUC(0-24) / AUC(0-t): 0.2 mg/mL, two 25 μL increments; for Lung Tissue:Plasma AUC ratio: lung AUC to plasma AUC; for AUC(0-t): mouse, inhaled or intranasal, 0.01 mg/mouse, plasma, read-out: Plasma AUC(0-24)
Procedure: Plasma and lung concentrations of test compounds were quantified and pharmacokinetic parameters were calculated in the following manner. Male CD1 mice from Charles River Laboratories were used in the pharmacokinetic studies. Test compounds were individually formulated in 20% propylene glycol in pH 4 citrate buffer at a concentration of 0.2 mg/mL. Test compounds were administered in two, 25 μL increments introduced into the trachea of each mouse by oral aspiration using a calibrated pipette once the animal was anesthetized using isoflurane. Blood samples were collected as terminal collections via cardiac puncture at 0.167, 1, 4, 8, and 24 hr post-dosing. Following […] with CO2, a direct cardiac puncture was performed while avoiding puncturing the lung and blood was immediately transferred into K2EDTA tubes and placed on wet ice. Blood samples were centrifuged (Eppendorf centrifuge, 5804R) for 4 minutes at approximately 12,000 rpm at 4° C. to collect plasma. Intact lungs were also excised from these mice using the same timepoints (0.167, 1, 4, 8, and 24 hr). Lungs were washed with sterile water to remove any blood residue and were patted dry, weighed, and homogenized in 0.1% formic acid in water at a dilution of 1:3 (lung:water, weight/volume). Plasma and lung concentrations of test compounds were determined by LC-MS/MS analysis against analytical standards constructed into a standard curve in the test matrix. The pharmacokinetic parameters of test compounds were determined by non-compartmental analysis. For concentrations below the limit of quantification, zero was used for mean calculations. Mean values were not reported if more than 50% of the samples were below the limit of quantification at a timepoint, or if more than 50% of a calculated pharmacokinetic parameter was not reportable. The area under the concentration-time curve extrapolated to infinity (AUC(0-inf)) was calculated as follows: AUC(0-inf)=AUC(0-t)+Clast/k, where AUC(0-t) is the area under the concentration-time curve from the time of dosing to the last measurable concentration calculated by the linear trapezoidal rule, Clast is the last measurable concentration, and k is the first order rate constant associated with the terminal elimination phase, estimated by linear regression of time versus log concentration. The lung-to-plasma AUC ratio was determined as the ratio of the lung AUC(0-inf) in μg*hr/g to the plasma AUC(0-inf) in μg*hr/mL.

Sequence of JAK1 (P23458 whole entry): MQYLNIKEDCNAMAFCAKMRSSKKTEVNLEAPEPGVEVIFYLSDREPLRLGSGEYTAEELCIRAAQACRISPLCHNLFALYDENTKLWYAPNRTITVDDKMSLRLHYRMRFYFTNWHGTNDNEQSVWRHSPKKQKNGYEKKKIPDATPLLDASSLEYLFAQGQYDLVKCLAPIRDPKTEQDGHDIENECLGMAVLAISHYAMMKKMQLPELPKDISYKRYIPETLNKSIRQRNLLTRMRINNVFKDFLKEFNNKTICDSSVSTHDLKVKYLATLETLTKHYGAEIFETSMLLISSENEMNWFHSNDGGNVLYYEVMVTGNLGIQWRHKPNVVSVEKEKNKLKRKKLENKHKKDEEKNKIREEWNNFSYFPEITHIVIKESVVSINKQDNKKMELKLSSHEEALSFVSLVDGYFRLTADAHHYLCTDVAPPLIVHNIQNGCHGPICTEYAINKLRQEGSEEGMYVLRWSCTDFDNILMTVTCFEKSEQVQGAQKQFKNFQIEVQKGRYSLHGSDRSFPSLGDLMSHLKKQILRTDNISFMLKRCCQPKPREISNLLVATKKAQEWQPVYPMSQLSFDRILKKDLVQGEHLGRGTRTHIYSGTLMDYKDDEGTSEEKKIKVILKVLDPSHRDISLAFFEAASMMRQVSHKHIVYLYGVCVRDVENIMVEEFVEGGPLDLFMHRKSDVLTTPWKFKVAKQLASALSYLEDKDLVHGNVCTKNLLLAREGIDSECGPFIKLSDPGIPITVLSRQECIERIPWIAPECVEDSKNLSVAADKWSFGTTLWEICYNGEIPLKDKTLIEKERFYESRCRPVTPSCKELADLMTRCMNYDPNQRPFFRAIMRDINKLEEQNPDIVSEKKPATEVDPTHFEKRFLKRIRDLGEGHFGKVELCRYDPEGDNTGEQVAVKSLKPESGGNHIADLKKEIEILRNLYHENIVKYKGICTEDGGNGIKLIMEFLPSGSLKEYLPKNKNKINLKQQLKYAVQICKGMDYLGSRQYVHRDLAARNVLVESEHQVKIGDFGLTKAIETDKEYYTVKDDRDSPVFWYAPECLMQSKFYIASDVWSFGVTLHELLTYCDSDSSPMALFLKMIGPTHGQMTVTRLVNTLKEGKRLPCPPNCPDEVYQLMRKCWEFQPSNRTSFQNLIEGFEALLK

SMILES	Ki (JAK1)	Ki (JAK2)	Ki (JAK3)	Ki (TYK2)	IC50 [1]	Lung Tissue AUC(0-24) [2]	Lung Tissue:Plasma AUC ratio [2]	AUC(0-t) [2]	JAK1 pKi (JAK1)	JAK2 pKi (JAK2)	BEAS2B pIC50 [1]
CCc1cc(O)ccc1-c1ccc2c(-c3nc(C4=CCCNC4)c[nH]3)n[nH]c2c1 [Compound 4, 3-ethyl-4-(3-(4-(1,2,5,6-tetrahydropyridin-3-yl)-1H-imidazol-2-yl)-1H-indazol-6-yl)phenol]	0.1 to 1 nM	0.1 to 1 nM	0.1 to 1 nM	1 to 10 nM	3.16 to 10 nM	B (B denotes a value between 50 and 100)	C (C denotes a ratio between 100 and 200)	500 to 1000 ng·h/mL	–	–	–
CCc1cc(O)ccc1-c1ccc2c(-c3nc(C4=CCNC4)c[nH]3)n[nH]c2c1 [Compound 5, 4-(3-(4-(2,5-dihydro-1H-pyrrol-3-yl)-1H-imidazol-2-yl)-1H-indazol-6-yl)-3-ethylphenol]	–	0.1 to 1 nM	0.1 to 1 nM	0.1 to 1 nM	3.16 to 10 nM	C (C denotes a value between 9 and 50)	D (D denotes a ratio between 50 and 100)	< 500 ng·h/mL	A (A represents a pKi value ≥10 (Ki≤0.1 nM))	–	–
CCc1cc(O)ccc1-c1ccc2c(-c3nc(C4=CCCNC4)c[nH]3)n[nH]c2c1F [Compound 6, 3-ethyl-4-(7-fluoro-3-(4-(1,2,5,6-tetrahydropyridin-3-yl)-1H-imidazol-2-yl)-1H-indazol-6-yl)phenol]	0.1 to 1 nM	0.1 to 1 nM	1 to 10 nM	1 to 10 nM	3.16 to 10 nM	B (B denotes a value between 50 and 100)	D (D denotes a ratio between 50 and 100)	500 to 1000 ng·h/mL	–	–	–
CCc1cc(O)ccc1-c1ccc2c(-c3nc(C4=CC5COCC(C4)N5)c[nH]3)n[nH]c2c1 (stereo not shown) [Compound 7, 4-(3-(4-(3-oxa-9-azabicyclo[3.3.1]non-6-en-7-yl)-1H-imidazol-2-yl)-1H-indazol-6-yl)-3-ethylphenol]	0.1 to 1 nM	–	0.1 to 1 nM	1 to 10 nM	10 to 31.6 nM	B (B denotes a value between 50 and 100)	C (C denotes a ratio between 100 and 200)	< 500 ng·h/mL	–	A (A represents a pKi value ≥10 (Ki≤0.1 nM))	–
CCc1cc(O)ccc1-c1ccc2c(-c3nc(C4=C[C@H](CO)NC4)c[nH]3)n[nH]c2c1F [Compound 8, (R)-3-ethyl-4-(7-fluoro-3-(4-(5-(hydroxymethyl)-2,5-dihydro-1H-pyrrol-3-yl)-1H-imidazol-2-yl)-1H-indazol-6-yl)phenol]	0.1 to 1 nM	–	0.1 to 1 nM	1 to 10 nM	10 to 31.6 nM	B (B denotes a value between 50 and 100)	C (C denotes a ratio between 100 and 200)	500 to 1000 ng·h/mL	–	A (A represents a pKi value ≥10 (Ki≤0.1 nM))	–
CCc1cc(O)ccc1-c1ccc2c(-c3nc(C4=CCN(CCCO)CC4)c[nH]3)n[nH]c2c1F [Compound 14, 3-ethyl-4-(7-fluoro-3-(4-(1-(3-hydroxypropyl)-1,2,3,6-tetrahydropyridin-4-yl)-1H-imidazol-2-yl)-1H-indazol-6-yl)phenol]	0.1 to 1 nM	–	0.1 to 1 nM	1 to 10 nM	10 to 31.6 nM	C (C denotes a value between 9 and 50)	C (C denotes a ratio between 100 and 200)	< 500 ng·h/mL	–	–	–
CCc1cc(O)ccc1-c1ccc2c(-c3nc(C4=CC(C)NC4)c[nH]3)n[nH]c2c1F (stereo not shown) [Example 244]	0.1 to 1 nM	0.1 to 1 nM	0.1 to 1 nM	1 to 10 nM	3.16 to 10 nM	–	–	–	–	–	–
CCc1cc(O)ccc1-c1ccc2c(-c3nc(C4=C[C@@H](CO)NC4)c[nH]3)n[nH]c2c1F [Example 245]	0.1 to 1 nM	0.1 to 1 nM	0.1 to 1 nM	10 to 100 nM	31.6 to 100 nM	–	–	–	–	–	–
CCc1cc(O)ccc1-c1ccc2c(-c3nc(C4=C(C)CNC4)c[nH]3)n[nH]c2c1F [Example 293]	0.1 to 1 nM	0.1 to 1 nM	0.1 to 1 nM	0.1 to 1 nM	3.16 to 10 nM	–	–	–	–	–	–
CCc1cc(O)ccc1-c1ccc2c(-c3nc(C4=CCNCC4C)c[nH]3)n[nH]c2c1 (stereo not shown) [Example 298]	0.1 to 1 nM	0.1 to 1 nM	0.1 to 1 nM	0.1 to 1 nM	10 to 31.6 nM	–	–	–	–	–	–
CCc1cc(O)ccc1-c1ccc2c(-c3nc(C4=C[C@H](C)NCC4)c[nH]3)n[nH]c2c1F [Example 299]	0.1 to 1 nM	0.1 to 1 nM	0.1 to 1 nM	0.1 to 1 nM	10 to 31.6 nM	–	–	–	–	–	–
CCOC(=O)C1CC=C(c2c[nH]c(-c3n[nH]c4c(F)c(-c5ccc(O)cc5CC)ccc34)n2)CN1 (stereo not shown) [Example 300]	0.1 to 1 nM	0.1 to 1 nM	0.1 to 1 nM	1 to 10 nM	10 to 31.6 nM	–	–	–	–	–	–
CCc1cc(O)ccc1-c1ccc2c(-c3nc(C4=CCN([C@H]5CC[C@@H](O)CC5)C4)c[nH]3)n[nH]c2c1F [Example 305]	0.1 to 1 nM	–	0.1 to 1 nM	0.1 to 1 nM	–	–	–	–	–	A (A represents a pKi value ≥10 (Ki≤0.1 nM))	B (B represents a pIC50 value between 7.5 (included) and 8)
CCOC[C@H]1C=C(c2c[nH]c(-c3n[nH]c4c(F)c(-c5ccc(O)cc5CC)ccc34)n2)CN1 [Example 307]	0.1 to 1 nM	0.1 to 1 nM	0.1 to 1 nM	1 to 10 nM	10 to 31.6 nM	–	–	–	–	–	–
CCc1cc(O)ccc1-c1ccc2c(-c3nc(C4=CC(CC)NC4)c[nH]3)n[nH]c2c1F (stereo not shown) [Example 321]	0.1 to 1 nM	0.1 to 1 nM	0.1 to 1 nM	1 to 10 nM	10 to 31.6 nM	–	–	–	–	–	–
CCc1cc(O)ccc1-c1ccc2c(-c3nc(C4=CCN(C[C@@H]5CCN5)CC4)c[nH]3)n[nH]c2c1F [Example 390]	0.1 to 1 nM	–	0.1 to 1 nM	1 to 10 nM	100 to 316 nM	–	–	–	–	A (A represents a pKi value ≥10 (Ki≤0.1 nM))	–

From US20240092758A1, “IMIDAZOLO INDAZOLE COMPOUNDS AS JAK INHIBITORS” (Theravance Biopharma R&D IP, LLC, priority 2021, published 2024)
